Results published in the supplement of paper PMC10307832.

What was measured:
Test in all cases: relative viability (nuclei count vs DMSO), 5 days (fraction); higher = more cells survive
IPA-3 = compound: C1=CC=C2C(=C1)C=CC(=C2SSC3=C(C=CC4=CC=CC=C43)O)O [IPA-3]
Outline: (§1)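 Only plates meeting two conditions passed: control CV below 25% and at least one doubling. Lung cancer cell lines, kept overnight at 37 °C in 1536-well plates, were pinned with five library-drug doses (not always all listed) √10 apart on vehicle-anchored plates and grown 5 days without medium change. A one-step fix, permeabilisation and Hoechst stain preceded 4× imaging and MetaXpress nuclear counting. Viability equals treated-well nuclei divided by vehicle-well nuclei, as the median over plates.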

Doramapimod = compound: Cc1ccc(-n2nc(C(C)(C)C)cc2NC(=O)Nc2ccc(OCCN3CCOCC3)c3ccccc23)cc1 [Doramapimod]
Outline: as §1

RAF265 = compound: Cn1c(Nc2ccc(C(F)(F)F)cc2)nc2cc(Oc3ccnc(-c4ncc(C(F)(F)F)[nH]4)c3)ccc21 [RAF265]
Outline: as §1

Doramapimod + Dasatinib = compound: Cc1ccc(-n2nc(C(C)(C)C)cc2NC(=O)Nc2ccc(OCCN3CCOCC3)c3ccccc23)cc1 [Doramapimod] + Cc1nc(Nc2ncc(C(=O)Nc3c(C)cccc3Cl)s2)cc(N2CCN(CCO)CC2)n1 [Dasatinib] (partner 0.075 µM)
Outline: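 Dosing by pin tool came one day after lung cancer cell lines were seeded in 1536-well plates, using either one drug or a fixed anchor-drug dose plus five library-drug doses (not always all listed) in √10 steps. After 5 days, nuclei were counted on 4× images. Relative viability is treated-well nuclei count divided by vehicle-well nuclei count, and values are medians of duplicate plates.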

Cell Line	relative viability (IPA-3; 0.2 µM)	relative viability (IPA-3; 0.6325 µM)	relative viability (IPA-3; 2 µM)	relative viability (IPA-3; 6.325 µM)	relative viability (IPA-3; 20 µM)	relative viability (Doramapimod; 0.02 µM)	relative viability (Doramapimod; 0.06325 µM)	relative viability (Doramapimod; 0.2 µM)	relative viability (Doramapimod; 0.6325 µM)	relative viability (Doramapimod; 2 µM)	relative viability (RAF265; 0.01 µM)	relative viability (RAF265; 0.03162 µM)	relative viability (RAF265; 0.1 µM)	relative viability (RAF265; 0.3162 µM)	relative viability (RAF265; 1 µM)	relative viability (Doramapimod + Dasatinib; first compound 0.02 µM)	relative viability (Doramapimod + Dasatinib; first compound 0.06325 µM)	relative viability (Doramapimod + Dasatinib; first compound 0.2 µM)	relative viability (Doramapimod + Dasatinib; first compound 0.6325 µM)	relative viability (Doramapimod + Dasatinib; first compound 2 µM)
Calu-6	1.1	0.971	0.984	0.998	1.04	0.995	0.979	1.04	1.09	1.01	0.97	0.842	0.791	0.505	0.347	–	–	–	–	–
ChaGo-K-1	1.05	0.96	0.96	1.06	1.07	0.988	1.09	0.983	0.975	0.916	0.977	1.04	1.01	0.865	0.789	0.51	0.583	0.526	0.566	0.586
EBC-1	1.29	0.984	1.01	0.963	0.933	0.949	0.987	0.991	1.03	0.838	1.05	0.966	0.939	0.794	0.611	–	–	–	–	–
EKVX	1.08	0.994	1.05	1.01	1.32	0.971	0.968	0.876	1	0.952	1.11	0.988	1.09	0.573	0.796	0.544	0.49	0.561	0.584	0.491
EMC-BAC-2	1.02	1.05	1	1.02	1.09	1	1.2	1.01	0.954	0.863	0.94	0.885	0.639	0.467	0.236	0.451	0.279	0.297	0.419	0.283
EPLC-272H	1.04	0.96	1	0.905	1.1	0.929	0.899	1.01	0.7	0.837	0.895	0.734	0.688	0.469	0.356	0.438	0.326	0.435	0.479	0.332
H3255	1	0.973	0.895	0.986	1.22	1.05	0.981	0.96	0.968	0.933	1	1.05	1.03	–	0.67	0.296	0.56	0.414	0.314	0.351
HARA	1.28	0.977	1.04	1.05	1.21	1.02	0.948	0.811	1.19	0.754	1.07	0.982	0.949	0.693	0.584	0.194	0.274	0.277	–	0.199
HCC-15	1.17	0.98	0.931	0.972	0.998	0.993	0.99	0.936	0.74	0.915	0.99	1.02	1.01	0.819	0.684	0.56	0.598	0.634	–	0.595
